Bridge positions count the residues as written; N and C are the ends. Ends that are not written are not given here.
Tested on: patients with chronic idiopathic constipation (CIC)
Test: Second phase 3 CIC trial: change from baseline in CSBMs/week
Type: in vivo, human
Details: All Randomized (includes Duplicate Patients)
[1] = 3 mg, overall average estimate across the 12-week treatment period

## Asn^1-Asp^2-Glu^3-Cys^4-Glu^5-Leu^6-Cys^7-Val^8-Asn^9-Val^10-Ala^11-Cys^12-Thr^13-Gly^14-Cys^15-Leu^16 (NDECELCVNVACTGCL; disulfide 4-12, 7-15) [Plecanatide, uroguanylin analogue, guanylate cyclase-C agonist; (C4:C12, C7:C15) bicycle peptide]
3 mg, Post-Treatment Week 13
  Change from Baseline in CSBMs, Difference from Placebo: 0.43 CSBMs/week
  Change from Baseline in CSBMs, LS Mean (SE): 1.91 (0.131) CSBMs/week
  Change from Baseline in CSBMs, Mean (SD): 1.87 (2.717) CSBMs/week
3 mg, Post-Treatment Week 14
  Change from Baseline in CSBMs, Difference from Placebo: 0.40 CSBMs/week
  Change from Baseline in CSBMs, LS Mean (SE): 1.78 (0.133) CSBMs/week
  Change from Baseline in CSBMs, Mean (SD): 1.75 (2.596) CSBMs/week
3 mg, Week 1
  Change from Baseline in CSBMs, Difference from Placebo: 0.90 CSBMs/week
  Change from Baseline in CSBMs, LS Mean (SE): 1.72 (0.147) CSBMs/week
  Change from Baseline in CSBMs, Mean (SD): 1.75 (2.737) CSBMs/week
3 mg, Week 2
  Change from Baseline in CSBMs, Difference from Placebo: 0.87 CSBMs/week
  Change from Baseline in CSBMs, LS Mean (SE): 1.83 (0.147) CSBMs/week
  Change from Baseline in CSBMs, Mean (SD): 1.82 (2.956) CSBMs/week
3 mg, Week 3
  Change from Baseline in CSBMs, Difference from Placebo: 0.77 CSBMs/week
  Change from Baseline in CSBMs, LS Mean (SE): 1.94 (0.147) CSBMs/week
  Change from Baseline in CSBMs, Mean (SD): 1.94 (3.084) CSBMs/week
3 mg, Week 4
  Change from Baseline in CSBMs, Difference from Placebo: 0.95 CSBMs/week
  Change from Baseline in CSBMs, LS Mean (SE): 2.17 (0.148) CSBMs/week
  Change from Baseline in CSBMs, Mean (SD): 2.20 (3.352) CSBMs/week
3 mg, Week 5
  Change from Baseline in CSBMs, Difference from Placebo: 0.87 CSBMs/week
  Change from Baseline in CSBMs, LS Mean (SE): 2.30 (0.149) CSBMs/week
3 mg, Week 6
  Change from Baseline in CSBMs, Difference from Placebo: 1.00 CSBMs/week
  Change from Baseline in CSBMs, LS Mean (SE): 2.30 (0.149) CSBMs/week
3 mg, Week 7
  Change from Baseline in CSBMs, Difference from Placebo: 0.82 CSBMs/week
  Change from Baseline in CSBMs, LS Mean (SE): 2.28 (0.150) CSBMs/week
3 mg, Week 8
  Change from Baseline in CSBMs, Difference from Placebo: 1.01 CSBMs/week
  Change from Baseline in CSBMs, LS Mean (SE): 2.49 (0.150) CSBMs/week
3 mg, Week 9
  Change from Baseline in CSBMs, Difference from Placebo: 0.93 CSBMs/week
  Change from Baseline in CSBMs, LS Mean (SE): 2.46 (0.150) CSBMs/week
3 mg, Week 10
  Change from Baseline in CSBMs, Difference from Placebo: 0.84 CSBMs/week
  Change from Baseline in CSBMs, LS Mean (SE): 2.46 (0.150) CSBMs/week
3 mg, Week 11
  Change from Baseline in CSBMs, Difference from Placebo: 0.96 CSBMs/week
  Change from Baseline in CSBMs, LS Mean (SE): 2.53 (0.151) CSBMs/week
3 mg, Week 12
  Change from Baseline in CSBMs, Difference from Placebo: 0.95 CSBMs/week
  Change from Baseline in CSBMs, LS Mean (SE): 2.58 (0.151) CSBMs/week
[1]
  Change from Baseline in CSBMs, Difference from Placebo: 0.91 CSBMs/week
  Change from Baseline in CSBMs, LS Mean (SE): 2.25 (0.129) CSBMs/week
6 mg, Post-Treatment Week 13
  Change from Baseline in CSBMs, Difference from Placebo: 0.16 CSBMs/week
  Change from Baseline in CSBMs, LS Mean (SE): 1.64 (0.130) CSBMs/week
  Change from Baseline in CSBMs, Mean (SD): 1.59 (2.376) CSBMs/week
6 mg, Post-Treatment Week 14
  Change from Baseline in CSBMs, Difference from Placebo: 0.30 CSBMs/week
  Change from Baseline in CSBMs, LS Mean (SE): 1.67 (0.133) CSBMs/week
  Change from Baseline in CSBMs, Mean (SD): 1.62 (2.588) CSBMs/week
6 mg, Week 1
  Change from Baseline in CSBMs, Difference from Placebo: 0.88 CSBMs/week
  Change from Baseline in CSBMs, LS Mean (SE): 1.70 (0.146) CSBMs/week
  Change from Baseline in CSBMs, Mean (SD): 1.71 (2.870) CSBMs/week
6 mg, Week 2
  Change from Baseline in CSBMs, Difference from Placebo: 0.85 CSBMs/week
  Change from Baseline in CSBMs, LS Mean (SE): 1.81 (0.146) CSBMs/week
  Change from Baseline in CSBMs, Mean (SD): 1.83 (3.118) CSBMs/week
6 mg, Week 3
  Change from Baseline in CSBMs, Difference from Placebo: 0.65 CSBMs/week
  Change from Baseline in CSBMs, LS Mean (SE): 1.81 (0.147) CSBMs/week
  Change from Baseline in CSBMs, Mean (SD): 1.83 (2.927) CSBMs/week
6 mg, Week 4
  Change from Baseline in CSBMs, Difference from Placebo: 0.80 CSBMs/week
  Change from Baseline in CSBMs, LS Mean (SE): 2.02 (0.147) CSBMs/week
6 mg, Week 5
  Change from Baseline in CSBMs, Difference from Placebo: 0.50 CSBMs/week
  Change from Baseline in CSBMs, LS Mean (SE): 1.93 (0.147) CSBMs/week
6 mg, Week 6
  Change from Baseline in CSBMs, Difference from Placebo: 0.91 CSBMs/week
  Change from Baseline in CSBMs, LS Mean (SE): 2.21 (0.148) CSBMs/week
6 mg, Week 7
  Change from Baseline in CSBMs, Difference from Placebo: 0.81 CSBMs/week
  Change from Baseline in CSBMs, LS Mean (SE): 2.27 (0.148) CSBMs/week
6 mg, Week 8
  Change from Baseline in CSBMs, Difference from Placebo: 0.81 CSBMs/week
  Change from Baseline in CSBMs, LS Mean (SE): 2.29 (0.148) CSBMs/week
6 mg, Week 9
  Change from Baseline in CSBMs, Difference from Placebo: 0.81 CSBMs/week
  Change from Baseline in CSBMs, LS Mean (SE): 2.34 (0.149) CSBMs/week
6 mg, Week 10
  Change from Baseline in CSBMs, Difference from Placebo: 0.85 CSBMs/week
  Change from Baseline in CSBMs, LS Mean (SE): 2.47 (0.149) CSBMs/week
6 mg, Week 11
  Change from Baseline in CSBMs, Difference from Placebo: 0.83 CSBMs/week
  Change from Baseline in CSBMs, LS Mean (SE): 2.40 (0.149) CSBMs/week
6 mg, Week 12
  Change from Baseline in CSBMs, Difference from Placebo: 0.86 CSBMs/week
  Change from Baseline in CSBMs, LS Mean (SE): 2.49 (0.150) CSBMs/week
6 mg, overall average estimate across the 12-week treatment period
  Change from Baseline in CSBMs, Difference from Placebo: 0.80 CSBMs/week
